According to paper PMC9897788, “Design, synthesis and cytotoxic evaluation of novel bis-thiazole derivatives as preferential Pim1 kinase inhibitors with in vivo and in silico study” (Journal of Enzyme Inhibition and Medicinal Chemistry, 2023):

Key:
Test in all cases: NCI 60 cell one-dose screening (SRB)
Type in all cases: cell-based
[1] = system: 786-0; settings: Homo sapiens; 786-0, Renal Cancer; single dose 10 µM, 48 h; read-out: Percentage of cellular growth inhibition
Description: (§1) The 60 cancerous cell panel screening was performed following the Developmental Therapeutics Program (DTP) of the National Cancer Institute (NIH-NCI), USA. A single dose of 10 µM was used to perform the screening at 48 h incubation and the results were achieved as cancerous cell growth percentage relative to the no-drug control that was converted to an inhibition percentage by subtracting from 100.The cancerous cell lines were grown in RPMI 1640 medium containing 5% foetal bovine serum and 2 mM L-glutamine at 37 °C, 5% CO2, 95% air and 100% relative humidity for 24 h prior to addition of the tested compounds. After 24 h, two plates of each cell line were fixed in situ with TCA to represent a measurement of the cell population for each cell line at the time of drug addition (Tz). Compounds were dissolved in DMSO at 400-fold the desired final maximum test concentration and stored frozen prior to use. At the time of drug addition, an aliquot of frozen concentrate was thawed and diluted to twice the desired final maximum test concentration with complete medium containing 50 µg/mL gentamicin. Aliquots of 100 µL of the compounds dilution was added to the appropriate micro titre wells already containing 100 µL of medium, resulting in the required final drug concentrations of 10 µM. Following compounds addition, the plates were incubated for an additional 48 h at 37 °C, 5% CO2, 95% air, and 100% relative humidity. For adherent cells, the assay was terminated by the addition of cold TCA. Cells were fixed in situ by the gentle addition of 50 µL of cold 50% (w/v) TCA (final concentration, 10% TCA) and incubated for 60 min at 4 °C. The supernatant was discarded, and the plates were washed five times with tap water and air dried. Sulphorhodamine B (SRB) solution (100 µL) at 0.4% (w/v) in 1% acetic acid is added to each well, and plates are incubated for 10 min at room temperature. After staining, unbound dye was removed by washing five times with 1% acetic acid and the plates were air dried. Bound stain was subsequently solubilised with 10 mM trizma base, and the absorbance was read on an automated plate reader at a wavelength of 515 nm. For suspension cells, the methodology was the same except that the assay was terminated by fixing settled cells at the bottom of the wells by gently adding 50 µL of 80% TCA (final concentration, 16% TCA). Using the seven absorbance measurements [time zero, (Tz), control growth, I, and test growth in the presence of drug at the five concentration levels (Ti)], the percentage growth was calculated as: [(Ti−Tz)/(C−Tz)]×100 for concentrations for which Ti>/=Tz [(Ti−Tz)/Tz]×100 for concentrations for which Ti<Tz.

[2] = system: A498; settings: Homo sapiens; A498, Renal Cancer; single dose 10 µM, 48 h; read-out: Percentage of cellular growth inhibition
Description: as §1

[3] = system: A549/ATCC; settings: Homo sapiens, Non-Small Cell Lung Cancer, single dose 10 µM, 48 h, read-out: Percentage of cellular growth inhibition
Description: as §1

[4] = system: ACHN; settings: Homo sapiens, Renal Cancer, single dose 10 µM, 48 h, read-out: Percentage of cellular growth inhibition
Description: as §1

[5] = system: EKVX; settings: Homo sapiens, Non-Small Cell Lung Cancer, single dose 10 µM, 48 h, read-out: Percentage of cellular growth inhibition
Description: as §1

[6] = system: HOP-62; settings: Homo sapiens; HOP-62, Non-Small Cell Lung Cancer; single dose 10 µM, 48 h; read-out: Percentage of cellular growth inhibition
Description: as §1

[7] = system: HS 578T; settings: Homo sapiens, Breast Cancer, single dose 10 µM, 48 h, read-out: Percentage of cellular growth inhibition
Description: as §1

[8] = system: HT29; settings: Homo sapiens, HT-29; HT29, Colon Cancer; single dose 10 µM, 48 h; read-out: Percentage of cellular growth inhibition
Description: as §1

[9] = system: IGROV1; settings: Homo sapiens, IGROV-1; IGROV1, Ovarian Cancer; single dose 10 µM, 48 h; read-out: Percentage of cellular growth inhibition
Description: as §1

[10] = system: KM12; settings: Homo sapiens; KM12, Colon Cancer; single dose 10 µM, 48 h; read-out: Percentage of cellular growth inhibition
Description: as §1

[11] = system: MALME-3M; settings: Homo sapiens, Melanoma, single dose 10 µM, 48 h, read-out: Percentage of cellular growth inhibition
Description: as §1

[12] = system: MDA-MB-231/ATCC; settings: Homo sapiens, Breast Cancer, single dose 10 µM, 48 h, read-out: Percentage of cellular growth inhibition
Description: as §1

[13] = system: NCI-H460; settings: Homo sapiens; NCI-H460, Non-Small Cell Lung Cancer; single dose 10 µM, 48 h; read-out: Percentage of cellular growth inhibition
Description: as §1

[14] = system: NCI-H522; settings: Homo sapiens; NCI-H522, Non-Small Cell Lung Cancer; single dose 10 µM, 48 h; read-out: Percentage of cellular growth inhibition
Description: as §1

[15] = system: NCI/ADR-RES; settings: Homo sapiens, Ovarian Cancer, single dose 10 µM, 48 h, read-out: Percentage of cellular growth inhibition
Description: as §1

[16] = system: RPMI-8226; settings: Homo sapiens; RPMI-8226, Leukemia; single dose 10 µM, 48 h; read-out: Percentage of cellular growth inhibition
Description: as §1

[17] = system: SF-295; settings: Homo sapiens; SF-295, CNS Cancer; single dose 10 µM, 48 h; read-out: Percentage of cellular growth inhibition
Description: as §1

[18] = system: SF-539; settings: Homo sapiens; SF-539, CNS Cancer; single dose 10 µM, 48 h; read-out: Percentage of cellular growth inhibition
Description: as §1

[19] = system: SW-620; settings: Homo sapiens; SW-620, Colon Cancer; single dose 10 µM, 48 h; read-out: Percentage of cellular growth inhibition
Description: as §1

[20] = system: TK-10; settings: Homo sapiens; TK-10, Renal Cancer; single dose 10 µM, 48 h; read-out: Percentage of cellular growth inhibition
Description: as §1

[21] = system: UO-31; settings: Homo sapiens; UO-31, Renal Cancer; single dose 10 µM, 48 h; read-out: Percentage of cellular growth inhibition
Description: as §1

Structure (SMILES)	inhibition at 10 µM [1] [%]	inhibition at 10 µM [2] [%]	inhibition at 10 µM [3] [%]	inhibition at 10 µM [4] [%]	inhibition at 10 µM [5] [%]	inhibition at 10 µM [6] [%]	inhibition at 10 µM [7] [%]	inhibition at 10 µM [8] [%]	inhibition at 10 µM [9] [%]	inhibition at 10 µM [10] [%]	inhibition at 10 µM [11] [%]	inhibition at 10 µM [12] [%]	inhibition at 10 µM [13] [%]	inhibition at 10 µM [14] [%]	inhibition at 10 µM [15] [%]	inhibition at 10 µM [16] [%]	inhibition at 10 µM [17] [%]	inhibition at 10 µM [18] [%]	inhibition at 10 µM [19] [%]	inhibition at 10 µM [20] [%]	other results
S=C(Nc1ccccc1)Nc1cccc(NC(=S)Nc2ccccc2)c1 [compound 7, 1,1′-(1,3-phenylene)bis(3-phenylthiourea)]	-13.4	-17.7	0.1	-3.8	2.5	-18.9	3.9	-26.3	-3.3	1	10.8	-0.2	-16.5	-6.3	-9.3	-19.2	1.2	-11.5	-16.8	-17.5	inhibition at 10 µM [21]: 14.6%
Clc1ccc(-c2cs/c(=N\c3ccccc3)n2-c2cccc(-n3c(-c4ccc(Cl)cc4)cs/c3=N\c3ccccc3)c2)cc1 [8c, N,N’-(3,3’-(1,3-phenylene)bis(4–(4-chlorophenyl)thiazole-3(3H)-yl-2(3H)-ylidene))dianiline]	-6.9	-16.3	27.7	-1.5	4.9	-3.3	10.4	12.4	-0.4	8.8	6.7	-4.5	0.1	42.2	0.5	37	-17.9	-3	36.7	-14.1	inhibition at 10 µM [21]: 17.8%
c1ccc(-c2csc(Nc3cccc(Nc4nc(-c5ccccc5)cs4)c3)n2)cc1 [6a, N^1,N^3-bis(4-phenylthiazol-2-yl)benzene-1,3-diamine]	49.6	14.5	55.8	63.8	62.3	27	43.5	60.6	65.9	98.9	47.2	52	73.1	88.6	73.9	50.7	62.4	42.3	33.8	31.4	inhibition at 10 µM [21]: 67.7%
Cc1csc(Nc2cccc(Nc3nc(C)cs3)c2)n1 [3a, N^1,N^3-bis(4-methylthiazol-2-yl)benzene-1,3-diamine]	-10.8	51.2	-3.9	20.7	14.7	3.5	7.9	-6.8	7.9	5.2	-18.3	21.2	1.6	39.3	20.1	11.8	9.5	7.9	-3.6	-35	inhibition at 10 µM [21]: 15.7%
Cc1nc(Nc2cccc(Nc3nc(C)c(N=Nc4ccccc4)s3)c2)sc1N=Nc1ccccc1 [5a, N^1,N^3-bis(4-methyl-5-(phenyldiazenyl)thiazol-2-yl)benzene-1,3-diamine]	18.7	1.2	36.4	38.3	16.9	9.3	19.8	2	52.2	52.1	-7.7	35.1	3.2	30.7	10.2	-9.4	13.6	15.4	9.4	2.9	inhibition at 10 µM [21]: 69.7%
CCOc1ccc(/N=N/c2sc(Nc3cccc(Nc4nc(C)c(/N=N/c5ccc(OCC)cc5)s4)c3)nc2C)cc1 [5b, N^1,N^3-bis(5-((4-ethoxyphenyl)diazinyl)-4-methylthiazol-2-yl)benzene-1,3-diamine]	6.6	13.5	12.5	1.1	6.5	-1.3	2.2	0.2	9.7	-0.8	-6.9	6.7	-6.8	12.9	1.5	-7.2	4.4	0.1	-0.3	-0.2	inhibition at 10 µM [21]: 12.4%
Clc1ccc(-c2csc(Nc3cccc(Nc4nc(-c5ccc(Cl)cc5)cs4)c3)n2)cc1 [6c, N^1,N^3-bis(4–(4-chlorophenyl)thiazol-2-yl)benzene-1,3-diamine]	29.2	9.8	6.7	14.3	12.4	17.7	29.5	-10.5	9	-1.4	-22.4	24.9	-2.1	13.2	4.6	14.8	4	13.9	0.4	1.4	inhibition at 10 µM [21]: 21.6%
